Experimental data from patent publication US20240336654A1, “ANTIMICROBIAL PEPTIDOMIMETICS” (SPEXIS AG, priority 2021, published 2024).
Where a SMILES comes first, the peptide text is derived from it. Bridges are numbered along the chain shown (N, C = ends). [ ]: non-standard residue; d: D form. The star is where a group is joined. Val(Nα-amidino) = CC(C)[C@H](NC(=N)N)C(=O)*; dDab(iPr) = CC(C)NCC[C@@H](N)C(=O)O; Hyp = O=C(O)[C@@H]1C[C@@H](O)CN1; Pen = CC(C)(S)[C@H](N)C(=O)O; dDab = NCC[C@@H](N)C(=O)O; Orn = NCCC[C@H](N)C(=O)O; Dab = NCC[C@H](N)C(=O)O

What was measured:
Format in all cases: cell-based
[1] = system: Escherichia coli ATCC 25922; conditions: ATCC 25922
Method in brief: (§1)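 CLSI broth microdilution, slightly modified: cation-adjusted Mueller-Hinton II broth with about 5×10^5 CFU/mL from a 0.5 McFarland suspension, and two-fold serial peptide dilutions with Polysorbate 80 at 0.002% final. MIC (μg/mL) was the lowest concentration with no visible growth after 18-20 hours at 35° C.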

[2] = system: Escherichia coli MCR-1 Af 45; conditions: MCR-1 Af 45
Method in brief: as §1

[3] = system: Klebsiella pneumoniae SSI3010; conditions: SSI3010
Method in brief: as §1

[4] = system: human red blood cells (hRBC); conditions: red cells of human, 1 h, 200 μg/mL
Method in brief: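 Peptides at 200 μg/mL incubated 1 h at 37 °C with 20% (v/v) washed human RBC, shaking. Hemolysis from supernatant OD540, expressed as percent of 2.5% Triton X-100 lysis, with PBS as 0%.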

Row | Escherichia coli ATCC 25922 MIC [1] [µg/mL] | Escherichia coli MCR-1 Af45 MIC [2] [µg/mL] | Klebsiella pneumoniae SSI3010 MIC [3] [µg/mL] | Structure (SMILES) | Hemolysis at 0.2 g/L [4] [%]
1 | 0.125 | 0.125 | 0.25 | CC[C@H](C)[C@H](NC(=O)[C@@H]1C[C@@H](O)CN1C(=O)[C@@H](NC(=N)N)C(C)C)C(=O)N[C@@H]1C(=O)N[C@@H](Cc2ccc(O)cc2)C(=O)N[C@@H]([C@@H](C)O)C(=O)N[C@@H](CC(N)=O)C(=O)N[C@@H](CCCNC(=N)N)C(=O)N[C@@H](CCN)C(=O)N[C@@H]([C@@H](C)O)C(=O)N[C@H](CCN)C(=O)N[C@@H](CC(N)=O)C(=O)N[C@@H](CCN)C(=O)N[C@@H](CCN)C(=O)N[C@H](C(=O)N[C@@H](Cc2ccc(O)cc2)C(=O)O)CSSC1(C)C [Example 105, Gua-Val-Hyp-Ile-Pen-Tyr-Thr-Asn-Arg-Dab-Thr-^DDab-Asn-Dab-Dab-Cys-Tyr] ({Val(Nα-amidino)}-[Hyp]I[Pen]YTNR[Dab]T[dDab]N[Dab][Dab]CY-OH; disulfide 3-14) | <1
2 | 0.03125 | 0.03125 | 0.125 | CC[C@H](C)[C@H](NC(=O)[C@@H]1C[C@@H](O)CN1C(=O)[C@@H](NC(=N)N)C(C)C)C(=O)N[C@@H]1C(=O)N[C@@H](Cc2ccc(O)cc2)C(=O)N[C@@H]([C@@H](C)O)C(=O)N[C@@H](CC(N)=O)C(=O)N[C@@H](CCCNC(=N)N)C(=O)N[C@@H](CCN)C(=O)N[C@@H]([C@@H](C)O)C(=O)N[C@H](CCN)C(=O)N[C@@H](CCCN)C(=O)N[C@@H](CCN)C(=O)N[C@@H](CCN)C(=O)N[C@H](C(=O)N[C@@H](Cc2ccc(O)cc2)C(=O)O)CSSC1(C)C [Example 124, Gua-Val-Hyp-Ile-Pen-Tyr-Thr-Asn-Arg-Dab-Thr-^DDab-Orn-Dab-Dab-Cys-Tyr] ({Val(Nα-amidino)}-[Hyp]I[Pen]YTNR[Dab]T[dDab][Orn][Dab][Dab]CY-OH; disulfide 3-14) | <1
3 | 0.125 | 0.03125 | 0.125 | CC[C@H](C)[C@H](NC(=O)[C@@H]1C[C@@H](O)CN1C(=O)[C@@H](NC(=N)N)C(C)C)C(=O)N[C@@H]1C(=O)N[C@@H](Cc2ccc(O)cc2)C(=O)N[C@@H](CO)C(=O)N[C@@H](CC(N)=O)C(=O)N[C@@H](CCCNC(=N)N)C(=O)N[C@@H](CCN)C(=O)N[C@@H]([C@@H](C)O)C(=O)N[C@H](CCN)C(=O)N[C@@H](CCCN)C(=O)N[C@@H](CCN)C(=O)N[C@@H](CCN)C(=O)N[C@H](C(=O)N[C@@H](Cc2ccc(O)cc2)C(=O)O)CSSC1(C)C [Example 126, Gua-Val-Hyp-Ile-Pen-Tyr-Ser-Asn-Arg-Dab-Thr-^DDab-Orn-Dab-Dab-Cys-Tyr] ({Val(Nα-amidino)}-[Hyp]I[Pen]YSNR[Dab]T[dDab][Orn][Dab][Dab]CY-OH; disulfide 3-14) | <1
4 | 0.125 | 0.125 | 0.25 | CC[C@H](C)[C@H](NC(=O)[C@@H]1C[C@@H](O)CN1C(=O)[C@@H](NC(=N)N)C(C)C)C(=O)N[C@@H]1C(=O)N[C@@H](Cc2ccc(O)cc2)C(=O)N[C@@H]([C@@H](C)O)C(=O)N[C@@H](CC(N)=O)C(=O)N[C@@H](CCCNC(=N)N)C(=O)N[C@@H](CCN)C(=O)N[C@@H]([C@@H](C)O)C(=O)N[C@H](CCNC(C)C)C(=O)N[C@@H](CCCCN)C(=O)N[C@@H](CCN)C(=O)N[C@@H](CCN)C(=O)N[C@H](C(=O)N[C@@H](Cc2ccc(O)cc2)C(=O)O)CSSC1(C)C [Example 95, Gua-Val-Hyp-Ile-Pen-Tyr-Thr-Asn-Arg-Dab-Thr-^DDab(iPr)-Lys-Dab-Dab-Cys-Tyr] ({Val(Nα-amidino)}-[Hyp]I[Pen]YTNR[Dab]T[dDab(iPr)]K[Dab][Dab]CY-OH; disulfide 3-14) | <1

Second part, the compound before the results:

Row | Structure (SMILES) | Escherichia coli ATCC 25922 MIC [1] [µg/mL] | Escherichia coli MCR-1 Af45 MIC [2] [µg/mL] | Klebsiella pneumoniae SSI3010 MIC [3] [µg/mL] | Hemolysis at 0.2 g/L [4] [%]
5 | CC[C@H](C)[C@H](NC(=O)[C@@H]1C[C@@H](O)CN1C(=O)[C@@H](NC(=N)N)C(C)C)C(=O)N[C@H]1CCC(=O)NCC[C@@H](C(=O)N[C@@H](Cc2ccc(O)cc2)C(=O)O)NC(=O)[C@H](CCN)NC(=O)[C@H](CCN)NC(=O)[C@H](CCCCN)NC(=O)[C@@H](CCN)NC(=O)[C@H]([C@@H](C)O)NC(=O)[C@H](CCN)NC(=O)[C@H](CCCNC(=N)N)NC(=O)[C@H](CC(N)=O)NC(=O)[C@H]([C@@H](C)O)NC(=O)[C@H](Cc2ccc(O)cc2)NC1=O [Example 88, Gua-Val-Hyp-Ile-Glu-Tyr-Thr-Asn-Arg-Dab-Thr-^DDab-Lys-Dab-Dab-Dab-Tyr] ({Val(Nα-amidino)}-[Hyp]IEYTNR[Dab]T[dDab]K[Dab][Dab][Dab]Y-OH; lactam 3-14) | 0.125 | 0.0625 | 0.125 | <1
6 | CC[C@H](C)[C@H](NC(=O)[C@@H]1C[C@@H](O)CN1C(=O)[C@@H](NC(=N)N)C(C)C)C(=O)N[C@@H]1C(=O)N[C@@H](Cc2ccc(O)cc2)C(=O)N[C@@H]([C@@H](C)O)C(=O)N[C@@H](CC(N)=O)C(=O)N[C@@H](CCCNC(=N)N)C(=O)N[C@@H](CCN)C(=O)N[C@@H](CO)C(=O)N[C@H](CCN)C(=O)N[C@@H](CO)C(=O)N[C@@H](CCN)C(=O)N[C@@H](CCN)C(=O)N[C@H](C(=O)N[C@@H](Cc2ccc(O)cc2)C(=O)O)CSSC1(C)C [Example 82, Gua-Val-Hyp-Ile-Pen-Tyr-Thr-Asn-Arg-Dab-Ser-^DDab-Ser-Dab-Dab-Cys-Tyr] ({Val(Nα-amidino)}-[Hyp]I[Pen]YTNR[Dab]S[dDab]S[Dab][Dab]CY-OH; disulfide 3-14) | 0.125 | 0.125 | 0.25 | <1
7 | CC[C@H](C)[C@H](NC(=O)[C@@H]1C[C@@H](O)CN1C(=O)[C@@H](N)C(C)C)C(=O)N[C@@H]1C(=O)N[C@@H](Cc2ccc(O)cc2)C(=O)N[C@@H](CO)C(=O)N[C@@H](CC(N)=O)C(=O)N[C@@H](CCCNC(=N)N)C(=O)N[C@@H](CCN)C(=O)N[C@@H]([C@@H](C)O)C(=O)N[C@H](CCN)C(=O)N[C@@H](C)C(=O)N[C@@H](CCN)C(=O)N[C@@H](CCN)C(=O)N[C@H](C(=O)N[C@@H](Cc2ccc(O)cc2)C(=O)O)CSSC1(C)C [Example 39, Val-Hyp-Ile-Pen-Tyr-Ser-Asn-Arg-Dab-Thr-^DDab-Ala-Dab-Dab-Cys-Tyr] (H-V[Hyp]I[Pen]YSNR[Dab]T[dDab]A[Dab][Dab]CY-OH; disulfide 4-15) | 0.25 | 0.25 | 0.5 | <1
